Data set [1] in a line: Solid-state stability study at 40° C. and 75% relative humidity. It is filed as physicochemical. The following applies: 40° C./75% RH, sealed container; for Storage stability compared to pure cannabidiolic acid: up to 4 weeks. The procedure: The physical stability of the cannabidiolic acid cocrystals was examined with respect to solid form conversion or signs of decomposition or decarboxylation, and to compare the results with those for pure cannabidiolic acid. In order to assess the storage potential of the cocrystals within a reasonable timeframe standard accelerated storage conditions of 40° C. and 75% relative humidity were chosen. 50 mg each of the 1:1 cannabidiolic acid L-phenylalanine, 1:1 cannabidiolic acid vanillin, 1:1 cannabidiolic acid betaine, 1:1 cannabidiolic acid ethyl maltol, 1:1 cannabidiolic acid L-proline and cannabidiolic acid were separately placed in a sealed container at 40° C. and 75% relative humidity and monitored periodically over a 4-week time period. All samples that had not decomposed and remained as solids were analyzed by XRPD after this time to observe any potential form changes. At the start of the study, all cocrystal samples were white solids while the pure cannabidiolic acid was an off-white solid.

For a further data set, the target named is T1, 5-HT1A (Rattus norvegicus, UniProt P19327).
T1 sequence (P19327 1-422): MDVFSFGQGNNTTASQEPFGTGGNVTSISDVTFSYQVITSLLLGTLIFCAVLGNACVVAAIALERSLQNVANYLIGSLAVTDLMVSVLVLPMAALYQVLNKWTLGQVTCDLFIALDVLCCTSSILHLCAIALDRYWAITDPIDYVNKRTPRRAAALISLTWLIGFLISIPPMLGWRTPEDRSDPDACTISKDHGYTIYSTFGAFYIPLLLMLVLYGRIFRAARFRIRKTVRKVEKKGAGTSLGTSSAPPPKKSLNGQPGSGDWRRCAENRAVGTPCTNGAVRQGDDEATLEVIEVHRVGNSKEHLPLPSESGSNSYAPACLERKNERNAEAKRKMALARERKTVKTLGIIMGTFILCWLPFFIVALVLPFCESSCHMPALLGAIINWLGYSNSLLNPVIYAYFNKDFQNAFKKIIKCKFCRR
The following applies: higher affinity than CBD; Bolognini et al. 2012; cited from earlier work.

In data set [2] the test system is nausea and vomiting in a rat model. The following applies: via 5-HT1A activation mechanism, Bolognini et al. 2012; cited from earlier work.
The next data set concerns the target T2, COX-2 (Homo sapiens, UniProt P35354).
T2 sequence (P35354 18-604): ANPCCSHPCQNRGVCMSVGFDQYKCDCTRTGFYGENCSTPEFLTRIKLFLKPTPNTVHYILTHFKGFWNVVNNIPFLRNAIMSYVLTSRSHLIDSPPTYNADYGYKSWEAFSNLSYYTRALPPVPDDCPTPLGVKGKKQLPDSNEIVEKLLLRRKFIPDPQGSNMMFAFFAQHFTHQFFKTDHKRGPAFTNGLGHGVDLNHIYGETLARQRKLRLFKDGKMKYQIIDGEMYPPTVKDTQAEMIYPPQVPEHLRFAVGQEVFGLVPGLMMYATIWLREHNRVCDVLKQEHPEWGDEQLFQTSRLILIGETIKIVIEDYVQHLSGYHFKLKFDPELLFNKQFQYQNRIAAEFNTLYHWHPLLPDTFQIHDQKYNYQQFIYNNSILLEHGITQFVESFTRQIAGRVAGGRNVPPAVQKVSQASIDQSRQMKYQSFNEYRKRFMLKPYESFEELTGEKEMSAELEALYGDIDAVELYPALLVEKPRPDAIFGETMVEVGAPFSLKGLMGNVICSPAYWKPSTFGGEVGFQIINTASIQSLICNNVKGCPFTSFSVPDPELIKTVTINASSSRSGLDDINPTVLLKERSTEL
The following applies: Takeda 2008; cited from earlier work.

For data set [3] the following is noted: WO2017025712; cited from earlier work.

The source of these data is patent publication US12319649B1, “Cannabidiolic acid cocrystals” (Manoira Corporation, priority 2024, dated 2025).

Bounds are passed on as bounds.

With `C=C(C)[C@@H]1CCC(C)=C[C@H]1c1c(O)cc(CCCCC)c(C(=O)O)c1O.C[N+](C)(C)CC(=O)[O-]` [1:1 CBDA Betaine Cocrystal, 1:1 cannabidiolic acid betaine cocrystal], the “XRPD (solid form change)” value was “No change” in data set [1] (4 weeks) and “no solid form conversion or dissociation had occurred” in data set [1] (4 weeks, listed as 1:1 cannabidiolic acid betaine). In addition, the Appearance entry in data set [1] (4 weeks, white solid at start) is “No change”; in data set [1] (4 weeks, white solid at start, listed as 1:1 cannabidiolic acid betaine), “remained unchanged as white solids”. Also, the “Storage stability compared to pure cannabidiolic acid” value in data set [1] is listed as “significantly superior storage properties compared to pure CBDA”.
Regarding `C=C(C)[C@@H]1CCC(C)=C[C@H]1c1c(O)cc(CCCCC)c(C(=O)O)c1O.CCc1occc(=O)c1O` [1:1 CBDA Ethyl Maltol Cocrystal, 1:1 cannabidiolic acid ethyl maltol cocrystal], in data set [1], the “Time to conversion into dark brown liquid” value was at most 2 weeks and the “Storage stability compared to pure cannabidiolic acid” value is “more stable than pure cannabidiolic acid”. Besides, the Appearance entry in data set [1] (2 weeks, white solid at start) was “Dark brown liquid”.
Take `C=C(C)C1CCC(C)=CC1c1c(O)cc(CCCCC)c(C(=O)O)c1O.O=C(O)C1CCCN1` [1:1 CBDA L-Proline Cocrystal, 1:1 cannabidiolic acid L-proline cocrystal]: the “XRPD (solid form change)” value in data set [1] (4 weeks) is recorded as “No change”; in data set [1] (4 weeks, listed as 1:1 cannabidiolic acid L-proline cocrystal) it was “same crystalline structure”. In addition, the Appearance entry in data set [1] (4 weeks, white solid at start) is “tan solid”; in data set [1] (4 weeks, white solid at start, listed as 1:1 cannabidiolic acid L-proline cocrystal), “tanned colored solid”.
Regarding `C=C(C)[C@@H]1CCC(C)=C[C@H]1c1c(O)cc(CCCCC)c(C(=O)O)c1O.N[C@@H](Cc1ccccc1)C(=O)O` [1:1 CBDA Phenylalanine Cocrystal, 1:1 cannabidiolic acid L-phenylalanine cocrystal], the “XRPD (solid form change)” value in data set [1] (4 weeks) was “No change”; in data set [1] (4 weeks, listed as 1:1 cannabidiolic acid L-phenylalanine), “no solid form conversion or dissociation had occurred”. Besides, the Appearance entry is given as “No change” in data set [1] (4 weeks, white solid at start) and “remained unchanged as white solids” in data set [1] (4 weeks, white solid at start, listed as 1:1 cannabidiolic acid L-phenylalanine). The “Storage stability compared to pure cannabidiolic acid” value in data set [1] is “significantly superior storage properties compared to pure CBDA”.
Regarding `C=C(C)[C@@H]1CCC(C)=C[C@H]1c1c(O)cc(CCCCC)c(C(=O)O)c1O.COc1cc(C=O)ccc1O` [1:1 CBDA Vanillin Cocrystal, 1:1 cannabidiolic acid vanillin cocrystal], in data set [1], the “Time to conversion into dark brown liquid” value is given as at most 3 weeks and the “Storage stability compared to pure cannabidiolic acid” value is “more stable than pure cannabidiolic acid”. Also, the Appearance result in data set [1] (3 weeks, white solid at start) is recorded as “Dark brown liquid”.
`C=C(C)[C@@H]1CCC(C)=C[C@H]1c1c(O)cc(CCCCC)c(C(=O)O)c1O` [Pure CBDA, cannabidiolic acid]: the “Time to deliquescence to a liquid” value in data set [1] is given as “Within one hour”. The Appearance result in data set [1] (2 hours, off-white solid at start) is “Dark brown liquid”; in data set [1] (2 hours, off-white solid at start, listed as pure CBDA), “liquid that within a further hour had turned dark brown in color”. Moreover, the “Affinity for 5-HT1A relative to CBD” value at 5-HT1A is 100 fold. Besides, the “Inhibition of nausea and vomiting, potency versus CBD” value in data set [2] is “significantly greater potency than CBD”. The “Inhibition of COX-2 activity” value at COX-2 is listed as “selectively inhibit COX-2 activity”. For the same compound, the “Efficacy in treating epilepsy versus CBD” value in data set [3] is “more effective than CBD”.
